The values that follow come from US9492433B2, “Pharmaceutical composition for the treatment of Duchenne muscular dystrophy” (Summit Corporation Plc, priority 2012, dated 2016).

Common to all, as to type: physicochemical
Data set [1] is described as follows: Gravimetric vapour sorption analysis. The note with it: Form I. The source says: Form I was subjected to gravimetric vapour sorption analysis, ramping profile from 0 to 90% RH at 10% RH increments.
Data set [2] in a line: Solubility in water and corn oil.
The nature of data set [3]: Water/octanol partition coefficient (ProfilerLDA isocratic chromatography). Particulars: octanol/water (octanol-coated column), pH 7.4; read-out: log D (water/octanol partition coefficient). As for the experimental part:
The water/octanol partition coefficient was determined with a ProfilerLDA isocratic chromatography system, using an octanol-coated column with octanol-saturated mobile phases.

Data set [4] in a line: Solubility of C1100 Form I in pharmaceutically-acceptable solvents at 20° C. (HPLC of saturated solutions). Particulars: organic solvent or mixture, thermodynamic from solid, Form I polymorph, 4 hours equilibration. As for the experimental part:
In each case, about 25 mg of drug substance was allowed to equilibrate with 250 μL of solvent over 4 hours. The resulting saturated solutions were filtered and analysed by HPLC.

As a reminder, the solubility is the concentration that dissolves in the medium under given conditions.

≈ marks a conversion by molar mass, not a printed value. Like-named read-outs stand apart in the source and are kept apart here.

As to `CCS(=O)(=O)c1ccc2oc(-c3ccc4ccccc4c3)nc2c1` [C1100, 5-(ethylsulfonyl)-2-(naphthalen-2-yl)benzo[d]oxazole], in data set [1] (0 to 90% RH at 10% RH increments, up to 90% RH, reversed under dry-air conditions), the Moisture absorbed result is recorded as “no more than 0.25 % by weight”. The Hygroscopicity entry in data set [1] (based on vapour sorption results) was “not hygroscopic”. The solubility in data set [2] (oil or lipid, corn oil, very slightly soluble, read-out: Solubility in corn oil) was 600 µg/mL (≈ 1.78 mM); in data set [2] (water, practically insoluble, read-out: Solubility in water), less than 1 µg/mL. Moreover, the chromatographic logD in data set [3] was 3.99 ± 0.01. Moreover, the solubility at 4 h in data set [4] (solvent 1,4-dioxane) came to 28400 µg/mL (≈ 84.2 mM); in data set [4] (solvent 1-butanol), 350 µg/mL (≈ 1.04 mM); in data set [4] (solvent 1-propanol), 790 µg/mL (≈ 2.34 mM); in data set [4] (solvent 2-butanol), 850 µg/mL (≈ 2.52 mM); in data set [4] (solvent 2-propanol) it was 470 µg/mL (≈ 1.39 mM); in data set [4] (solvent Acetone), 27500 µg/mL (≈ 81.6 mM). Also, the solubility at 4 h in data set [4] (solvent Acetonitrile) was 5440 µg/mL (≈ 16.1 mM); in data set [4] (solvent Butan-2-one), 3120 µg/mL (≈ 9.25 mM); in data set [4] (solvent Chloroform) it was greater than 50000 µg/mL; in data set [4] (solvent Dimethylformamide), greater than 33800 µg/mL; in data set [4] (solvent Dimethylsulfoxide), 13200 µg/mL (≈ 39.1 mM); in data set [4] (solvent Ethanol), 1140 µg/mL (≈ 3.38 mM). In addition, the solubility at 4 h in data set [4] (solvent Ethyl acetate) was 8360 µg/mL (≈ 24.8 mM); in data set [4] (solvent Heptane), 10900 µg/mL (≈ 32.4 mM); in data set [4] (solvent Methanol) it was 1060 µg/mL (≈ 3.14 mM); in data set [4] (solvent Tetrahydrofuran), 25900 µg/mL (≈ 76.8 mM); in data set [4] (solvent Toluene), 8500 µg/mL (≈ 25.2 mM); in data set [4] (solvent tert-butyl methyl ether (TBME)), 11700 µg/mL (≈ 34.6 mM).
